Source: patent US7026122B2, “Methods of assaying for compounds that inhibit premature translation termination and nonsense-mediated RNA decay” (PTC Therapeutics, Inc., priority 1999, dated 2006)
Values belong to the molecule of their own block, whether it stands above or below them.

Legend:
[1] = test system: premature translation termination (stop codon-containing luciferase RNA); assay: Biochemical suppression assay using RRL (rabbit reticulocyte lysate) and luciferase RNA; conditions: WT or stop codon luciferase RNA, incubated 45 or 90 minutes, FIGS. 7A-B
Method: In vitro translation assays were performed in the presence of RRL, luciferase RNA (panel A, WT; panel B, stop codon) and the indicated concentrations of gentamycin. Reactions were incubated 45 or 90 minutes before luciferase activity was determined. WT and stop codon containing RNA are schematically shown. The reactions were performed in either a 96 or 384 well format. In vitro synthesized reporter RNA (see constructs in FIG. 5) was added to 15 μL of fully supplemented rabbit reticulocyte lysate according to standard methodology (prepared by the method of Jackson & Hunt, Methods in Enzymology 96:50–75 (1983). 0.5 to 1 μg of in vitro transcribed RNA was used per reaction. The reaction was mixed with 15 μL of a 2% DMSO solution containing 20 μM of test compound. The reaction was incubated for 90 minutes at 30° C. in a humidified incubator. Luciferase substrate was added and luciferase activity was read on a Torcon automated reader (see FIGS. 6–7).

[2] = test system: premature translation termination and NMD (luciferase reporter with premature stop codon); assay: Cell-based assay, 293 cells stably transfected with pMLT55, luciferase activity; conditions: 12 hour exposure
Method: The indicated independent clones were exposed to the indicated concentrations of G418. Luciferase activity was measured after a 12 hour exposure.
The indicated cell numbers were plated per well of a 96 well plate. Cells were exposed to the indicated concentrations of G418. Luciferase activity was measured after a 12 hour exposure on a robotic 96 well plate reader. Gentamycin was also used to inhibit NMD and premature translation termination.
On day 1, clone 55–31, a 293 cell line stably transfected with pMLT 55 (see FIG. 1) was plated in 96 well plates in the morning in DMEM media with 10% fetal bovine serum. Approximately 80 plates are plated at 40,000 cells per well in 100 μL. The cells were incubated overnight at 37° C.
On day two, test compounds (1 μL of 1 mM stock solution in 100 μL DMSO; 10 μM final concentration) were added. G418 (1 mg/ml) was added to column 12 of each plate as a control. The plates were incubated at 37° C. for 12–16 hours.
On day three, luciferase substrate was added to the cells and the plates were read on a Torcon automated luciferase assay reader for 96 well plates (see, e.g., FIGS. 3–4). Luciferase substrate is commercially available, e.g., from Promega.

[3] = test system: premature translation termination (luciferase reporter with premature stop codon); assay: Suppression assay in cells transiently transfected with stop codon luciferase plasmids; format: cell-based; conditions: cells transiently infected with pMLT49, pMLT54 or pMLT55h for 24 hours; 12 hour exposure; FIGS. 2A-C
Method: Cells, transiently infected with the indicated plasmids for 24 hours, were exposed to the indicated concentration of G418 (panel A, pMLT49; panel B, pMLT54; panel C, pMLT55h). Luciferase activity was measured after a 12 hour exposure.

[4] = test system: premature stop codons in the dystrophin gene; conditions: mdx mouse, Barton-Davis et al. 1999; cited from earlier work

Suppression by gentamycin (luciferase activity) [1]: time dependent
Molecule: gentamycin

Molecule: CN[C@@H]1[C@@H](O)[C@@H](O[C@@H]2[C@@H](O)[C@H](O[C@H]3O[C@H]([C@@H](C)O)[C@@H](O)[C@H](O)[C@H]3N)[C@@H](N)C[C@H]2N)OC[C@]1(C)O [G418]
G418-mediated suppression (luciferase activity), high throughput format ([2]; clone #31, 96 well plate, FIG. 4): suppression in a stably transfected 293 cell line (clone #31) in high throughput format
G418-mediated suppression (relative luciferase activity, fold activation) ([2]; independent clones of 293 cells stably transfected with pMLT55, FIGS. 3A-B): suppression in various clones of stably transfected 293 cells
G418-mediated suppression (luciferase activity) [3]: not cell line specific

Molecule: gentamycin sulfate
Suppression of translational termination at premature stop codons [4]: found to suppress translational termination at premature stop codons in the dystrophin gene
